Experimental data from patent publication US11827628B2, “Compositions and methods for inhibition of the JAK pathway” (Rigel Pharmaceuticals, Inc., priority 2005, dated 2023).

Tests used:
[1] = test system: IL-4 stimulated expression of CD23 in human Ramos B cells (JAK-1 and JAK-3); experiment: Assay for Ramos B-Cell Line Stimulated with IL-4 (CD23 upregulation, FACS); assay type: cell-based; settings: Homo sapiens, Ramos, Ramos B cells stimulated with IL-4, CD23 expression by FACS; read-out: IC50, Example 41
In short: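 Read-out is surface CD23 by FACS after anti-CD23-PE staining, giving IC50. Before this, cells were stimulated 20-24 h with 50 units/mL (final) human IL-4, following 1 h compound or vehicle pre-treatment at 37 °C; log-phase Ramos B cells, 5×10^4 per well in 5% serum RPMI.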

[2] = test system: up-regulation of ICAM-1 (CD54) by IFNγ in U937 human monocytic cells; experiment: U937 IFNγ ICAM1 FACS Assay; assay type: cell-based; settings: Homo sapiens, U-937, U937 cells stimulated with IFNγ, ICAM-1 expression by FACS; read-out: IC50, Example 44
In short: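 U937 cells in 10% FCS RPMI were preincubated 30 min at 37 °C with an 8-point, 3-fold compound dilution series in duplicate, then stimulated with IFNγ for 18–24 h. Surface ICAM-1 was stained with APC anti-ICAM-1 and read by flow cytometry as geometric mean on live-gated cells. EC50 was derived.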

Row | SMILES | IC50 [1] | IC50 [2]
1 | C#CCNc1ccc(Nc2nc(Nc3ccc(C)c(S(N)(=O)=O)c3)ncc2F)cc1 [VI-65, N2-(3-Aminosulfonyl-4-methylphenyl)-5-fluoro-N4-[4-(prop-2-ynylamino)phenyl]-2,4-pyrimidinediamine] | 90.6 nM | 964 nM
2 | C#CCOc1ccc(Nc2nc(Nc3ccc(C)c(S(=O)(=O)NC)c3)ncc2F)cc1 [VI-68, 5-Fluoro-N2-(4-methyl-3-methylaminosulfonylphenyl)-N4-[4-(prop-2-ynyloxy)phenyl]-2,4-pyrimidinediamine] | 102 nM | 1810 nM
3 | C#CCOc1ccc(Nc2nc(Nc3ccc(N4CCN(C)CC4)c(S(N)(=O)=O)c3)ncc2F)cc1 [VI-70, N2-[3-Aminosulfonyl-4-(1-methylpiperazin-4-yl)phenyl]-5-fluoro-N4-[4-(prop-2-ynyloxy)phenyl]-2,4-pyrimidinediamine] | 70.6 nM | 657 nM
4 | C#CCOC(=O)NCc1ccc(Nc2nc(Nc3cccc(S(N)(=O)=O)c3)ncc2F)cc1 [VI-74, N2-(3-Aminosulfonylphenyl)-5-fluoro-N4-{4-[(prop-2-ynyloxy)carbonylaminomethyl]phenyl}-2,4-pyrimidinediamine] | 94.6 nM | 3850 nM
5 | NS(=O)(=O)c1cccc(Nc2ncc(F)c(Nc3ccc(CCCF)cc3)n2)c1 [VI-83, N2-(3-Aminosulfonylphenyl)-5-fluoro-N4-[4-(3-fluoropropyl)phenyl]-2,4-pyrimidinediamine] | 113 nM | 535 nM
6 | NS(=O)(=O)c1cccc(Nc2ncc(F)c(Nc3ccc(CCCO)cc3)n2)c1 [VI-86, N2-(3-Aminosulfonylphenyl)-5-fluoro-N4-[4-(3-hydroxypropyl)phenyl]-2,4-pyrimidinediamine] | 153 nM | 487 nM
7 | NS(=O)(=O)c1cccc(Nc2ncc(F)c(Nc3ccc(CCCCO)cc3)n2)c1 [VI-89, N2-(3-Aminosulfonylphenyl)-5-fluoro-N4-[4-(4-hydroxybutyl)phenyl]-2,4-pyrimidinediamine] | 132 nM | 2040 nM
8 | NS(=O)(=O)c1cccc(Nc2ncc(F)c(Nc3ccc(CCCCF)cc3)n2)c1 [VI-92, N2-(3-Aminosulfonylphenyl)-5-fluoro-N4-[4-(4-fluorobutyl)phenyl]-2,4-pyrimidinediamine] | 83.5 nM | 1160 nM
9 | NS(=O)(=O)c1cc(Nc2ncc(F)c(Nc3ccc(O)cc3)n2)ccc1F [VI-100, N2-(3-Aminosulfonyl-4-fluorophenyl)-5-fluoro-N4-(4-hydroxyphenyl)-2,4-pyrimidinediamine] | 321 nM | 4900 nM
10 | Cc1ccc(Nc2ncc(F)c(Nc3ccc(O)cc3)n2)cc1S(N)(=O)=O [VI-102, N2-(3-Aminosulfonyl-4-methylphenyl)-5-fluoro-N4-[4-hydroxyphenyl]-2,4-pyrimidinediamine] | 183 nM | 2800 nM
11 | COc1ccc(Nc2nc(Nc3cccc(S(N)(=O)=O)c3)ncc2F)cc1Cl [VI-107, N2-(3-Aminosulfonylphenyl)-5-fluoro-N4-(4-methoxy-3-chlorophenyl]-2,4-pyrimidinediamine] | 159 nM | 856 nM
12 | NS(=O)(=O)c1cccc(Nc2ncc(F)c(Nc3ccc(Cl)c(Cl)c3)n2)c1 [VI-110, N2-(3-Aminosulfonylphenyl)-N4-(3,4-dichlorophenyl)-5-fluoro-2,4-pyrimidinediamine] | 83.6 nM | 5460 nM
13 | Cc1ccc(Nc2ncc(F)c(Nc3ccc(C)c(S(N)(=O)=O)c3)n2)cc1S(N)(=O)=O [VI-114, N2,N4-Bis-(3-aminosulfonyl-4-methylphenyl)-5-fluoro-2,4-pyrimidinediamine] | 210 nM | 33200 nM
14 | COc1ccc(Nc2nc(Nc3ccc(N4CCN(C)CC4)c(S(N)(=O)=O)c3)ncc2F)cc1Cl [VI-116, N2-[3-Aminosulfonyl-4-(4-methylpiperazine-1-yl)phenyl]-N4-(3-chloro-4-methoxyphenyl)-5-fluoro-2,4-pyrimidinediamine] | 31.1 nM | 673 nM
15 | COc1ccc(Nc2nc(Nc3cccc(S(N)(=O)=O)c3)ncc2F)cn1 [VII-6, N2-(3-Aminosulfonylphenyl)-5-fluoro-N4-(2-methoxypyrid-5-yl)-2,4-pyrimidinediamine] | 102 nM | 3650 nM
16 | COc1ccc(Nc2nc(Nc3ccc(C)c(S(N)(=O)=O)c3)ncc2F)nc1N [VII-9, N2-(3-Aminosulfonyl-4-methylphenyl)-N4-[2-amino-3-methoxypyrid-6-yl]-5-fluoro-2,4-pyrimidinediamine] | 246 nM | 5350 nM
17 | CN1C(=O)C(C)(C)S(=O)(=O)c2ccc(Nc3nc(Nc4ccc(S(N)(=O)=O)cc4)ncc3F)cc21 [VII-12, N2-(4-Aminosulphonylphenyl)-5-fluoro-N4-(2,2,4-trimethyl-1,1,3-trioxo-benzo[1,4]thiazin-6-yl)-2,4-pyrimidinediamine] | 602 nM | 31800 nM
18 | Cc1ccc(Nc2ncc(C)c(Nc3ccc4c(c3)NC(=O)CO4)n2)cc1S(N)(=O)=O [VII-30, N2-(3-Aminosulphonyl-4-methylphenyl)-5-methyl-N4-(3-oxo-benz[1,4]oxazin-6-yl)-2,4-pyrimidinediamine] | 35.8 nM | 701 nM
19 | Cc1cnc(Nc2ccc(S(N)(=O)=O)cc2)nc1Nc1ccc2c(c1)NC(=O)CO2 [VII-31, N2-(4-Aminosulphonylphenyl)-5-methyl-N4-(3-oxo-benz[1,4]oxazin-6-yl)-2,4-pyrimidinediamine] | 125 nM | 7280 nM
20 | Cc1cnc(Nc2cccc(S(N)(=O)=O)c2)nc1Nc1ccc2c(c1)NC(=O)CO2 [VII-32, N2-(3-Aminosulphonylphenyl)-5-methyl-N4-(3-oxo-benz[1,4]oxazin-6-yl)-2,4-pyrimidinediamine] | 107 nM | 2060 nM
21 | Cc1cnc(Nc2cccc(S(N)(=O)=O)c2)nc1Nc1ccc2c(c1)N(C)C(=O)CS2 [VII-35, N2-(3-Aminosulphonylphenyl)-5-methyl-N4-(4-methyl-3-oxo-benzo[1,4]thiazin-6-yl)-2,4-pyrimidinediamine] | 44.8 nM | 245 nM
22 | Cc1ccc(Nc2ncc(F)c(Nc3ccc4c(c3)NC(=O)CS4)n2)cc1S(N)(=O)=O [VII-44, N2-(3-Aminosulphonyl-4-methyl-phenyl)-5-fluoro-N4-(3-oxo-4H-benzo[1,4]thiazin-6-yl)-2,4-pyrimidinediamine] | 33 nM | 1230 nM
23 | CN1C(=O)CSc2ccc(Nc3nc(Nc4ccc(S(N)(=O)=O)cc4)ncc3F)cc21 [VII-48, N2-(4-Aminosulfonylphenyl)-5-fluoro-N4-(4-methyl-3-oxo-benz[1,4]thiazin-6-yl)-2,4-pyrimidinediamine] | 30.8 nM | 660 nM
24 | CN1C(=O)CSc2ccc(Nc3nc(Nc4cccc(S(N)(=O)=O)c4)ncc3F)cc21 [VII-49, N2-(3-Aminosulfonylphenyl)-5-fluoro-N4-(4-methyl-3-oxo-benz[1,4]thiazin-6-yl)-2,4-pyrimidinediamine] | 37.8 nM | 577 nM
25 | NC(=O)c1cc2cc(Nc3nc(Nc4cccc(S(N)(=O)=O)c4)ncc3F)ccc2o1 [VII-54, N2-(3-Aminosulfonylphenyl)-N4-(2-aminocarbonylbenzofurane-5-yl)-5-fluoro-2,4-pyrimidinediamine] | 295 nM | 64600 nM
